Measurements published in patent US8952024B2, “Herbicidal pyrimidone derivatives” (E I du Pont de Nemours and Company, priority 2009, dated 2015).

Assays:
Type in all cases: in vivo
[1] = system: winter barley (Hordeum vulgare); experiment: Test B postemergence plant response; conditions: for Barley plant response rating (0 to 100 scale): 0 is no effect
Summary of the method: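 Plants at the 1- to 4-leaf stage (2 to 18 cm tall), grown in pots of peat moss/vermiculite medium with wetting agent and starter nutrients, received postemergence applications of test chemicals. After 13 to 15 days in a greenhouse, injury was rated visually against untreated controls on a 0 (no effect) to 100 (complete control) scale.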

[2] = system: umbrella sedge (Cyperus difformis); experiment: Test B flooded paddy test; conditions: for Plant response rating, Flood, Sedge, Umbrella: 250 g ai/ha, flooded paddy test, visual rating on 0 to 100 scale (0 no effect, 100 complete control) after 13 to 15 days; for Plant response rating, Sedge, Umbrella: Flood (flooded paddy test), 13 to 15 days; for Sedge, Umbrella plant response rating: Flood, 31 g ai/ha, scale 0 to 100 (0 no effect, 100 complete control)
Summary of the method: (§1)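 Plants were grown to the 2-leaf stage, then pots were flooded to 3 cm above the soil and compounds were applied directly into the paddy water. That depth was held throughout. After 13 to 15 days in a greenhouse, injury was visually rated against controls on a 0–100 scale.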

[3] = system: ducksalad (Heteranthera limosa); experiment: Test B flooded paddy test; conditions: for Plant response rating, Flood, Ducksalad: 250 g ai/ha, flooded paddy test, visual rating on 0 to 100 scale (0 no effect, 100 complete control) after 13 to 15 days; for Plant response rating, Ducksalad: Flood (flooded paddy test), 13 to 15 days
Summary of the method: as §1

[4] = system: rice (Oryza sativa); experiment: Test B flooded paddy test; conditions: for Plant response rating, Flood, Rice: 250 g ai/ha, flooded paddy test, visual rating on 0 to 100 scale (0 no effect, 100 complete control) after 13 to 15 days; for Plant response rating, Rice: Flood (flooded paddy test), 13 to 15 days; for Rice plant response rating: Flood, 31 g ai/ha, scale 0 to 100 (0 no effect, 100 complete control)
Summary of the method: as §1

[5] = system: barnyardgrass (Echinochloa crus-galli); experiment: Test B flooded paddy test; conditions: for Plant response rating, Flood, Barnyardgrass: 250 g ai/ha, flooded paddy test, visual rating on 0 to 100 scale (0 no effect, 100 complete control) after 13 to 15 days; for Plant response rating, Barnyardgrass: Flood (flooded paddy test), 13 to 15 days; for Barnyardgrass plant response rating: Flood, 31 g ai/ha, scale 0 to 100 (0 no effect, 100 complete control)
Summary of the method: as §1

[6] = system: velvetleaf (Abutilon theophrasti); experiment: Test A pre-/postemergence plant response
Summary of the method: (§2)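 Each species was treated preemergence via directed soil spray and postemergence at the one- to two-leaf stage, with compounds formulated in a non-phytotoxic solvent plus surfactant. Visual injury relative to untreated controls was rated after about ten days on a 0–100 scale.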

[7] = system: giant foxtail (Setaria faberii); experiment: Test A pre-/postemergence plant response
Summary of the method: as §2

[8] = system: pigweed (Amaranthus retroflexus); experiment: Test A pre-/postemergence plant response
Summary of the method: as §2

[9] = system: barnyardgrass (Echinochloa crus-galli); experiment: Test A pre-/postemergence plant response
Summary of the method: as §2

[10] = system: large crabgrass (Digitaria sanguinalis); experiment: Test A pre-/postemergence plant response
Summary of the method: as §2

[11] = system: morningglory (Ipomoea spp.); experiment: Test A pre-/postemergence plant response
Summary of the method: as §2

[12] = system: corn (Zea mays); experiment: Test A pre-/postemergence plant response
Summary of the method: as §2

[13] = system: wheat (Triticum aestivum); experiment: Test A pre-/postemergence plant response
Summary of the method: as §2

[14] = 31 g ai/ha, postemergence, scale 0 to 100, 0 is no effect, 100 is complete control
[15] = 62 g ai/ha, postemergence, 100 is complete control, 13 to 15 days
[16] = Postemergence, 125 g ai/ha, scale 0 to 100 (0 no effect, 100 complete control)
[17] = Postemergence, 250 g ai/ha, scale 0 to 100 (0 no effect, 100 complete control)
[18] = 62 g ai/ha, scale of 0 to 100 where 0 is no effect and 100 is complete control
[19] = Postemergence, 125 g ai/ha, 0 to 100 scale where 0 is no effect and 100 is complete control
[20] = Postemergence, 500 g ai/ha, 0 to 100 scale, 0 = no effect, 100 = complete control, approx. ten days
[21] = Preemergence, 125 g ai/ha, 0 to 100 scale, 0 = no effect, 100 = complete control
[22] = Preemergence, 500 g ai/ha, visual injury, 0 to 100 scale (0 no effect, 100 complete control), approx. ten days
[23] = 125 g ai/ha, scale 0 to 100, 0 is no effect, 100 is complete control
[24] = Postemergence, 500 g ai/ha, visual injury, 0 to 100 scale (0 no effect, 100 complete control), approx. ten days
[25] = Preemergence, 500 g ai/ha, 0 to 100 scale, 0 = no effect, 100 = complete control

CCCCn1c(-c2cc(F)cc(F)c2)ncc(C(=O)C2=C(O)CCCC2=O)c1=O [Compound 121]
10: Plant response rating, Barley [1, 17]
100: Plant response rating, Velvetleaf [6, 19] | Plant response rating, Velvetleaf [6, 20] | Plant response rating, Velvetleaf [6, 22] | Plant response rating, Foxtail, Giant [7, 22] | Plant response rating, Pigweed [8, 19] | Plant response rating, Pigweed [8, 20] | Plant response rating, Pigweed [8, 22] | Plant response rating, Barnyardgrass [9, 20] | Plant response rating, Barnyardgrass [9, 22] | Plant response rating, Crabgrass, Large [10, 20] | Plant response rating, Crabgrass, Large [10, 22] | Plant response rating, Morningglory [11, 19] | Plant response rating, Morningglory [11, 20]
50: Plant response rating, Wheat [13, 22]
20: Plant response rating, Barnyardgrass [9, 21]
55: Plant response rating, Flood, Rice [4]
40: Plant response rating, Corn [12, 20]
5: Barley plant response rating (0 to 100 scale) [1, 15] | Plant response rating, Barley [1, 16]
60: Plant response rating, Wheat [13, 20]
45: Plant response rating, Ducksalad [3, 18]
0: Plant response rating, Barley [1, 14] | Plant response rating, Rice [4, 18] | Plant response rating, Morningglory [11, 21] | Plant response rating, Corn [12, 19] | Plant response rating, Corn [12, 21] | Plant response rating, Wheat [13, 21]
30: Plant response rating, Sedge, Umbrella [2, 18] | Plant response rating, Barnyardgrass [5, 18] | Plant response rating, Corn [12, 22] | Plant response rating, Wheat [13, 19]
90: Plant response rating, Foxtail, Giant [7, 19] | Plant response rating, Foxtail, Giant [7, 20] | Plant response rating, Crabgrass, Large [10, 21]
80: Plant response rating, Flood, Ducksalad [3] | Plant response rating, Velvetleaf [6, 21] | Plant response rating, Foxtail, Giant [7, 21] | Plant response rating, Pigweed [8, 21] | Plant response rating, Barnyardgrass [9, 19] | Plant response rating, Crabgrass, Large [10, 19]
70: Plant response rating, Flood, Sedge, Umbrella [2] | Plant response rating, Flood, Barnyardgrass [5] | Plant response rating, Morningglory [11, 22]

CC(C)CC(=O)OC1=C(C(=O)c2cnc(-c3ccccc3)n(-c3ccccc3)c2=O)C(=O)CCC1 [Compound 83]
100: Plant response rating, Velvetleaf [6, 19] | Plant response rating, Velvetleaf [6, 20] | Plant response rating, Velvetleaf [6, 22] | Plant response rating, Pigweed [8, 20] | Plant response rating, Pigweed [8, 22] | Plant response rating, Crabgrass, Large [10, 22] | Plant response rating, Morningglory [11, 19] | Plant response rating, Morningglory [11, 20]
20: Ducksalad plant response rating ([3]; Flood, 31 g ai/ha, scale 0 to 100 (0 no effect, 100 complete control)) | Plant response rating, Morningglory [11, 21] | Plant response rating, Corn [12, 22]
90: Plant response rating, Foxtail, Giant [7, 20] | Plant response rating, Foxtail, Giant [7, 22] | Plant response rating, Pigweed [8, 19] | Plant response rating, Barnyardgrass [9, 20] | Plant response rating, Barnyardgrass [9, 22] | Plant response rating, Crabgrass, Large [10, 20]
50: Plant response rating, Flood, Sedge, Umbrella [2] | Plant response rating, Flood, Ducksalad [3]
40: Plant response rating, Sedge, Umbrella [2, 23] | Plant response rating, Ducksalad [3, 23] | Plant response rating, Flood, Barnyardgrass [5] | Plant response rating, Foxtail, Giant [7, 21]
70: Plant response rating, Velvetleaf [6, 21] | Plant response rating, Foxtail, Giant [7, 19] | Plant response rating, Barnyardgrass [9, 19] | Plant response rating, Crabgrass, Large [10, 21]
0: Plant response rating, Barley [1, 14] | Sedge, Umbrella plant response rating [2] | Plant response rating, Rice [4, 18] | Plant response rating, Rice [4, 23] | Rice plant response rating [4] | Plant response rating, Barnyardgrass [5, 18] | Barnyardgrass plant response rating [5] | Plant response rating, Corn [12, 19] | Plant response rating, Corn [12, 21] | Plant response rating, Wheat [13, 19] | Plant response rating, Wheat [13, 20] | Plant response rating, Wheat [13, 21]
30: Plant response rating, Sedge, Umbrella [2, 18] | Plant response rating, Ducksalad [3, 18] | Plant response rating, Flood, Rice [4] | Plant response rating, Barnyardgrass [9, 21] | Plant response rating, Corn [12, 20] | Plant response rating, Wheat [13, 22]
80: Plant response rating, Pigweed [8, 21] | Plant response rating, Crabgrass, Large [10, 19]
5: Barley plant response rating (0 to 100 scale) [1, 15] | Plant response rating, Barley ([1]; Postemergence, 125 g ai/ha, visual rating after 13 to 15 days, scale 0 (no effect) to 100 (complete control)) | Plant response rating, Barley [1, 17]
15: Plant response rating, Barnyardgrass [5, 23]
60: Plant response rating, Morningglory [11, 22]

CCCn1c(-c2ccsc2)ncc(C(=O)C2=C(O)C3CCC(C3)C2=O)c1=O (centres unmarked) [Compound 227]
45: Plant response rating, Rice [4, 23]
80: Sedge, Umbrella plant response rating [2] | Plant response rating, Flood, Ducksalad [3] | Plant response rating, Foxtail, Giant [7, 25] | Plant response rating, Pigweed [8, 21] | Plant response rating, Morningglory [11, 25]
90: Plant response rating, Velvetleaf [6, 21] | Plant response rating, Foxtail, Giant [7, 19] | Foxtail, Giant plant response rating [7, 24] | Plant response rating, Barnyardgrass [9, 19] | Barnyardgrass plant response rating [9, 24] | Plant response rating, Crabgrass, Large [10, 19] | Plant response rating, Crabgrass, Large [10, 21]
50: Plant response rating, Barnyardgrass [5, 23] | Plant response rating, Barnyardgrass [9, 21] | Plant response rating, Morningglory [11, 21]
85: Plant response rating, Flood, Sedge, Umbrella [2] | Plant response rating, Sedge, Umbrella [2, 18] | Plant response rating, Sedge, Umbrella [2, 23]
10: Plant response rating, Corn [12, 19] | Plant response rating, Corn [12, 25] | Plant response rating, Wheat [13, 25]
30: Plant response rating, Barley ([1]; Postemergence, 250 g ai/ha, scale 0 to 100 (0 no effect, 100 complete control), 13 to 15 days) | Plant response rating, Rice [4, 18]
5: Plant response rating, Barley ([1]; Postemergence, 62 g ai/ha, scale 0 to 100 (0 no effect, 100 complete control)) | Plant response rating, Barley [1, 16]
20: Rice plant response rating [4] | Barnyardgrass plant response rating [5]
0: Plant response rating, Barley ([1]; Postemergence, 31 g ai/ha, 0 to 100 scale (0 no effect, 100 complete control)) | Plant response rating, Corn [12, 21] | Plant response rating, Wheat [13, 19] | Wheat plant response rating [13, 24] | Plant response rating, Wheat [13, 21]
100: Plant response rating, Velvetleaf [6, 19] | Velvetleaf plant response rating [6, 24] | Plant response rating, Velvetleaf [6, 25] | Plant response rating, Pigweed [8, 19] | Pigweed plant response rating [8, 24] | Plant response rating, Pigweed [8, 25] | Plant response rating, Barnyardgrass [9, 25] | Crabgrass, Large plant response rating [10, 24] | Plant response rating, Crabgrass, Large [10, 25] | Plant response rating, Morningglory [11, 19] | Morningglory plant response rating [11, 24]
75: Plant response rating, Ducksalad [3, 23]
55: Plant response rating, Flood, Rice [4]
40: Plant response rating, Barnyardgrass [5, 18] | Plant response rating, Foxtail, Giant [7, 21]
60: Plant response rating, Flood, Barnyardgrass [5] | Corn plant response rating [12, 24]
